According to ChEMBL document CHEMBL3046471, “Evaluation of the anti-inflammatory activity of some pyrrolo[2,3-d]pyrimidine derivatives” (2013):

How the values were obtained:
Assay type in all cases: functional
[1] = system: Rattus norvegicus; test: Anti-inflammatory activity in sc dosed Sprague-Dawley Rattus norvegicus (rat) assessed as inhibition of carrageenan-induced paw edema administered at 1 hr prior to carrageenan injection measured at 4 hr post-carrageenan challenge by water plethysmometer
[2] = system: Rattus norvegicus; test: Anti-inflammatory activity in sc dosed Sprague-Dawley Rattus norvegicus (rat) assessed as inhibition of carrageenan-induced paw edema administered at 1 hr prior to carrageenan injection measured at 3 hr post-carrageenan challenge by water plethysmometer
[3] = system: Rattus norvegicus; test: Anti-inflammatory activity in sc dosed Sprague-Dawley Rattus norvegicus (rat) assessed as inhibition of carrageenan-induced paw edema administered at 1 hr prior to carrageenan injection measured at 2 hr post-carrageenan challenge by water plethysmometer
[4] = system: Rattus norvegicus; test: Anti-inflammatory activity in sc dosed Sprague-Dawley Rattus norvegicus (rat) assessed as inhibition of carrageenan-induced paw edema administered at 1 hr prior to carrageenan injection measured at 1 hr post-carrageenan challenge by water plethysmometer
[5] = system: Rattus norvegicus; test: Anti-inflammatory activity in Sprague-Dawley Rattus norvegicus (rat) assessed as inhibition of carrageenan-induced paw edema at 70 mg/kg, sc administered at 1 hr prior to carrageenan injection measured at 4 hr post-carrageenan challenge by water plethysmometer; conditions: route subcutaneous
[6] = system: Rattus norvegicus; test: Anti-inflammatory activity in Sprague-Dawley Rattus norvegicus (rat) assessed as inhibition of carrageenan-induced paw edema at 70 mg/kg, sc administered at 1 hr prior to carrageenan injection measured at 3 hr post-carrageenan challenge by water plethysmometer; conditions: route subcutaneous
[7] = system: Rattus norvegicus; test: Anti-inflammatory activity in Sprague-Dawley Rattus norvegicus (rat) assessed as inhibition of carrageenan-induced paw edema at 70 mg/kg, sc administered at 1 hr prior to carrageenan injection measured at 2 hr post-carrageenan challenge by water plethysmometer; conditions: route subcutaneous
[8] = system: Rattus norvegicus; test: Anti-inflammatory activity in Sprague-Dawley Rattus norvegicus (rat) assessed as inhibition of carrageenan-induced paw edema administered at 70 mg/kg, sc at 1 hr prior to carrageenan injection measured at 1 hr post-carrageenan challenge by water plethysmometer; conditions: route subcutaneous

Structure (SMILES) | inhibition (INH) [1] [%] | inhibition (INH) [2] [%] | inhibition (INH) [3] [%] | inhibition (INH) [4] [%] | inhibition in vivo at 70 mg/kg [5] [%] | inhibition in vivo at 70 mg/kg [6] [%] | inhibition in vivo at 70 mg/kg [7] [%] | inhibition in vivo at 70 mg/kg [8] [%]
COc1ccc(-n2cc(-c3ccccc3)c3c2ncn2c(=S)[nH]nc32)cc1 | 47.62 | 28.31 | 0 | 0 | – | – | – | –
COc1ccc(-n2c(-c3ccccc3)c(-c3ccccc3)c3c2ncn2c(C)nnc32)cc1 | 28.25 | 14.15 | 0 | 0 | – | – | – | –
Cc1ccc(-n2cc(-c3ccccc3)c3c2ncn2c(C)nnc32)cc1 | 32.85 | 29.5 | 18.85 | 11.74 | – | – | – | –
COc1ccc(-n2cc(-c3ccccc3)c3c2ncn2c(C)nnc32)cc1 | 35.98 | 27.8 | 0.5416 | 15.94 | – | – | – | –
Cc1ccc(-n2c(-c3ccccc3)c(-c3ccccc3)c3c2ncn2c(=O)[nH]nc32)cc1 | 42.85 | 19.7 | 0 | 0 | – | – | – | –
COc1ccc(-n2c(-c3ccccc3)c(-c3ccccc3)c3c2ncn2c(=O)[nH]nc32)cc1 | 36.5 | 18.5 | 10.38 | 1.45 | – | – | – | –
Cc1ccc(-n2c(-c3ccccc3)c(-c3ccccc3)c3c(N/N=C/c4ccccc4)ncnc32)cc1 | 32.8 | 15.44 | 0 | 0 | – | – | – | –
COc1ccc(-n2c(-c3ccccc3)c(-c3ccccc3)c3c(N/N=C/c4ccccc4)ncnc32)cc1 | 62.96 | 54.04 | 32.31 | 17.39 | – | – | – | –
Cc1ccc(-n2cc(-c3ccccc3)c3c(N/N=C/c4ccccc4)ncnc32)cc1 | 41.8 | 27.7 | 0 | 0 | – | – | – | –
COc1ccc(-n2cc(-c3ccccc3)c3c(N/N=C/c4ccccc4)ncnc32)cc1 | 66.19 | 62.68 | 30.77 | 23.04 | – | – | – | –
Cc1ccc(-n2c(-c3ccccc3)c(-c3ccccc3)c3c2ncn2nnnc32)cc1 | 31.59 | 26.83 | 11.54 | 5.65 | – | – | – | –
COc1ccc(-n2c(-c3ccccc3)c(-c3ccccc3)c3c2ncn2nnnc32)cc1 | 39.21 | 19.7 | 0 | 0 | – | – | – | –
COc1ccc(-n2c(-c3ccccc3)c(-c3ccccc3)c3c(-n4nc(C)cc4C)ncnc32)cc1 | 74.6 | 63.24 | 6.41 | 0 | – | – | – | –
Cc1ccc(-n2cc(-c3ccccc3)c3c(-n4nc(C)cc4C)ncnc32)cc1 | 59.25 | 31.37 | 2.56 | 8.7 | – | – | – | –
Cc1ccc(-n2c3c(c(-c4ccccc4)c2-c2ccccc2)C2=NNC(=O)CN2C=N3)cc1 | 34.92 | 28.31 | 23.08 | 17.39 | – | – | – | –
COc1ccc(-n2c3c(c(-c4ccccc4)c2-c2ccccc2)C2=NNC(=O)CN2C=N3)cc1 | 32.8 | 15.44 | 0 | 0 | – | – | – | –
CC(C)Cc1ccc(C(C)C(=O)O)cc1 (stereo not drawn) [IBUPROFEN] | – | – | – | – | 69.5 | 60.7 | 45 | 6.08
